Reference: US20250163104A1, “MACROCYCLIC IMMUNOMODULATORS” (priority 2021, published 2025)
*1 amine or outer side, *2 acyl side, *3 side chain or, on linkers, in order; H or OH if unused. Where a SMILES comes first, the peptide text is derived from it. Bridges are numbered along the chain shown (N, C = ends). [ ]: non-standard residue; d: D form. The star is where a group is joined. X3 = O=C([C@H](CCCNC[C@@H](O)[C@H](O)[C@H](O)[C@@H](O)[C@H](O)CO)N[*:1])[*:2]; X4 = O=C([C@H](CCNC[C@@H](O)[C@H](O)[C@H](O)[C@@H](O)[C@H](O)CO)N[*:1])[*:2]; Phe(3-CF3) = N[C@@H](Cc1cccc(C(F)(F)F)c1)C(=O)O; Phe(4-COOH) = N[C@@H](Cc1ccc(C(=O)O)cc1)C(=O)O; Bip = N[C@@H](Cc1ccc(-c2ccccc2)cc1)C(=O)O; Phe(3-Me) = Cc1cccc(C[C@H](N)C(=O)O)c1; Abu(3S-NH2) = C[C@H](N)[C@H](N)C(=O)O; Val(3-OH) = CC(C)(O)[C@H](N)C(=O)O; Cha = N[C@@H](CC1CCCCC1)C(=O)O; Tle = CC(C)(C)[C@H](N)C(=O)O; Carboxymethyl = O=C(O)C*; Nle = CCCC[C@H](N)C(=O)O; Orn = NCCC[C@H](N)C(=O)O; Pra = C#CC[C@H](N)C(=O)O; Dab = NCC[C@H](N)C(=O)O; Nva = CCC[C@H](N)C(=O)O

Molecular target: T1, human PD-1 / PD-L1-Ig binding on Jurkat cell line over-expressing human PD-1 (Jurkat-PD-1) (Homo sapiens, UniProt Q15116)
T1 construct: expressed in transfected cells; host or cells: Jurkat
Assay: Jurkat-PD-1 Cell Binding High-Content Screening Assay (CBA)
Assay type: cell-based
Conditions: Jurkat-PD-1 cells, PE-labeled PD-L1-Ig 20 nM final; read-out: Jurkat HPD1_PDL1 IC50
Outline: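 Jurkat cells over-expressing human PD-1, in DMEM/10% FCS, pre-incubated with compound 2 h at 37° C. PE-labeled human PD-L1-Ig (20 nM final) added for 1 h; cells fixed in paraformaldehyde with Hoechst 33342 nuclear stain, washed, and bound fluorescence quantified by high-content imaging.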

T1 sequence (Q15116 25-288): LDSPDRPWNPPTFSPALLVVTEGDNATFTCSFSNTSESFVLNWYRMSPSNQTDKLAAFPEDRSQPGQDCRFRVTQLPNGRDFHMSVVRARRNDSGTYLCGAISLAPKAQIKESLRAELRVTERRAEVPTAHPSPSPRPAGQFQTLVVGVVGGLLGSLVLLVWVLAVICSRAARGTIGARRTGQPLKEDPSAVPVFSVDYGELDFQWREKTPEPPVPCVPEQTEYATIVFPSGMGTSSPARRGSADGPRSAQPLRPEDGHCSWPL

| SMILES | IC50 [nM] |
| --- | --- |
| C#CC[C@H](NC(=O)[C@H](C)NC(=O)[C@@H]1CSCC(=O)N[C@@H](CCN)C(=O)N[C@@H](Cc2ccc(OCC(=O)O)cc2)C(=O)N[C@@H](CC(=O)O)C(=O)N[C@@H](Cc2cccc(C)c2)C(=O)N[C@@H](Cc2ccc(OCC(=O)O)cc2)C(=O)N[C@@H](Cc2ccc(-c3ccccc3)cc2)C(=O)N[C@@H](Cc2ccc(OCC(=O)O)cc2)C(=O)N[C@@H](CCCN)C(=O)N[C@H](CC(C)C)C(=O)N[C@@H](CCN)C(=O)N[C@@H](CC2CCCCC2)C(=O)N[C@@H](C(C)(C)O)C(=O)N[C@@H](CCC)C(=O)N1)C(=O)O [Compound 2697] ({CH2CO}-[Dab]Y(Carboxymethyl)D[Phe(3-Me)]Y(Carboxymethyl)[Bip]Y(Carboxymethyl)[Orn][dL][Dab][Cha][Val(3-OH)][Nva]CA[Pra]-OH; thioether N-14) | 26.2 |
| C#CC[C@H](NC(=O)[C@@H]1CSCC(=O)N[C@@H](CCC)C(=O)N[C@@H](Cc2ccc(OCC(=O)O)cc2)C(=O)N[C@@H](CC(=O)O)C(=O)N[C@@H](Cc2cccc(C)c2)C(=O)N[C@@H](Cc2ccc(OCC(=O)O)cc2)C(=O)N[C@@H](Cc2ccc(-c3ccccc3)cc2)C(=O)N[C@@H](Cc2ccc(OCC(=O)O)cc2)C(=O)N[C@@H](CCCNC[C@@H](O)[C@H](O)[C@H](O)[C@@H](O)[C@H](O)CO)C(=O)N[C@H](CC(C)C)C(=O)N[C@@H](CCC)C(=O)N[C@@H](CC2CCCCC2)C(=O)N[C@@H](C(C)C)C(=O)N[C@@H](CCC(=O)O)C(=O)N1)C(=O)O [Compound 2698] ({CH2CO}-[Nva]Y(Carboxymethyl)D[Phe(3-Me)]Y(Carboxymethyl)[Bip]Y(Carboxymethyl)[X3][dL][Nva][Cha]VEC[Pra]-OH; thioether N-14) | 129 |
| C#CC[C@H](NC(=O)[C@@H]1CSCC(=O)N[C@@H](CCC)C(=O)N[C@@H](Cc2ccc(OCC(=O)O)cc2)C(=O)N[C@@H](CC(=O)O)C(=O)N[C@@H](Cc2cccc(C)c2)C(=O)N[C@@H](Cc2ccc(OCC(=O)O)cc2)C(=O)N[C@@H](Cc2ccc(-c3ccccc3)cc2)C(=O)N[C@@H](Cc2ccc(OCC(=O)O)cc2)C(=O)N[C@@H](CCCC)C(=O)N[C@H](CC(C)C)C(=O)N[C@@H](CCNC[C@@H](O)[C@H](O)[C@H](O)[C@@H](O)[C@H](O)CO)C(=O)N[C@@H](CC2CCCCC2)C(=O)N[C@@H](C(C)C)C(=O)N[C@@H](CCC(=O)O)C(=O)N1)C(=O)O [Compound 2699] ({CH2CO}-[Nva]Y(Carboxymethyl)D[Phe(3-Me)]Y(Carboxymethyl)[Bip]Y(Carboxymethyl)[Nle][dL][X4][Cha]VEC[Pra]-OH; thioether N-14) | 239 |
| C#CC[C@H](NC(=O)[C@@H]1CSCC(=O)N[C@@H](CCC)C(=O)N[C@@H](Cc2ccc(OCC(=O)O)cc2)C(=O)N[C@@H](CC(=O)O)C(=O)N[C@@H](Cc2cccc(C)c2)C(=O)N[C@@H](Cc2ccc(OCC(=O)O)cc2)C(=O)N[C@@H](Cc2ccc(-c3ccccc3)cc2)C(=O)N[C@@H](Cc2ccc(OCC(=O)O)cc2)C(=O)N[C@@H](CCCNC[C@@H](O)[C@H](O)[C@H](O)[C@@H](O)[C@H](O)CO)C(=O)N[C@H](CC(C)C)C(=O)N[C@@H](CCNC[C@@H](O)[C@H](O)[C@H](O)[C@@H](O)[C@H](O)CO)C(=O)N[C@@H](CC2CCCCC2)C(=O)N[C@@H](C(C)C)C(=O)N[C@@H](CCC(=O)O)C(=O)N1)C(=O)O [Compound 2700] ({CH2CO}-[Nva]Y(Carboxymethyl)D[Phe(3-Me)]Y(Carboxymethyl)[Bip]Y(Carboxymethyl)[X3][dL][X4][Cha]VEC[Pra]-OH; thioether N-14) | 62.3 |
| C#CC[C@H](NC(=O)[C@@H]1CSCC(=O)N[C@@H](CCC)C(=O)N[C@@H](Cc2ccc(OCC(=O)O)cc2)C(=O)N[C@@H](CC(=O)O)C(=O)N[C@@H](Cc2cccc(C)c2)C(=O)N[C@@H](Cc2ccc(OCC(=O)O)cc2)C(=O)N[C@@H](Cc2ccc(-c3ccccc3)cc2)C(=O)N[C@@H](Cc2ccc(OCC(=O)O)cc2)C(=O)N[C@@H](CCCN)C(=O)N[C@H](CC(C)C)C(=O)N[C@@H](CCC)C(=O)N[C@@H](CC2CCCCC2)C(=O)N[C@@H](C(C)C)C(=O)N[C@@H](CCC(=O)O)C(=O)N1)C(=O)O [Compound 2701] ({CH2CO}-[Nva]Y(Carboxymethyl)D[Phe(3-Me)]Y(Carboxymethyl)[Bip]Y(Carboxymethyl)[Orn][dL][Nva][Cha]VEC[Pra]-OH; thioether N-14) | 163 |
| C#CC[C@H](NC(=O)[C@@H]1CSCC(=O)N[C@@H](CCC)C(=O)N[C@@H](Cc2ccc(OCC(=O)O)cc2)C(=O)N[C@@H](CC(=O)O)C(=O)N[C@@H](Cc2cccc(C)c2)C(=O)N[C@@H](Cc2ccc(OCC(=O)O)cc2)C(=O)N[C@@H](Cc2ccc(-c3ccccc3)cc2)C(=O)N[C@@H](Cc2ccc(OCC(=O)O)cc2)C(=O)N[C@@H](CCCN)C(=O)N[C@H](CC(C)C)C(=O)N[C@@H](CCN)C(=O)N[C@@H](CC2CCCCC2)C(=O)N[C@@H](C(C)C)C(=O)N[C@@H](CCC(=O)O)C(=O)N1)C(=O)O [Compound 2702] ({CH2CO}-[Nva]Y(Carboxymethyl)D[Phe(3-Me)]Y(Carboxymethyl)[Bip]Y(Carboxymethyl)[Orn][dL][Dab][Cha]VEC[Pra]-OH; thioether N-14) | 50.5 |
| C#CC[C@H](NC(=O)[C@@H]1CSCC(=O)N[C@@H](CCC)C(=O)N[C@@H](Cc2ccc(OCC(=O)O)cc2)C(=O)N[C@@H](CC(=O)O)C(=O)N[C@@H](Cc2cccc(C)c2)C(=O)N[C@@H](Cc2ccc(OCC(=O)O)cc2)C(=O)N[C@@H](Cc2ccc(-c3ccccc3)cc2)C(=O)N[C@@H](Cc2ccc(OCC(=O)O)cc2)C(=O)N[C@@H](CCCC)C(=O)N[C@H](CC(C)C)C(=O)N[C@@H](CCN)C(=O)N[C@@H](CC2CCCCC2)C(=O)N[C@@H](C(C)C)C(=O)N[C@@H](CCC(=O)O)C(=O)N1)C(=O)O [Compound 2703] ({CH2CO}-[Nva]Y(Carboxymethyl)D[Phe(3-Me)]Y(Carboxymethyl)[Bip]Y(Carboxymethyl)[Nle][dL][Dab][Cha]VEC[Pra]-OH; thioether N-14) | 412 |
| C#CC[C@H](NC(=O)[C@@H]1CSCC(=O)N[C@@H](CCN)C(=O)N[C@@H](Cc2ccc(C(=O)O)cc2)C(=O)N[C@@H](CC(=O)O)C(=O)N[C@@H](Cc2cccc(C)c2)C(=O)N[C@@H](Cc2ccc(C(=O)O)cc2)C(=O)N[C@@H](Cc2ccc(-c3ccccc3)cc2)C(=O)N[C@@H](Cc2ccc(C(=O)O)cc2)C(=O)N[C@@H](CCCN)C(=O)N[C@H](CC(C)C)C(=O)N[C@@H](CCN)C(=O)N[C@@H](CC2CCCCC2)C(=O)N[C@@H](C(C)(C)O)C(=O)N[C@@H](CO)C(=O)N1)C(=O)O [Compound 2704] ({CH2CO}-[Dab][Phe(4-COOH)]D[Phe(3-Me)][Phe(4-COOH)][Bip][Phe(4-COOH)][Orn][dL][Dab][Cha][Val(3-OH)]SC[Pra]-OH; thioether N-14) | 316 |
| C#CC[C@H](NC(=O)[C@H](CCN)NC(=O)[C@@H]1CSCC(=O)N[C@@H](CC(C)C)C(=O)N[C@@H](Cc2ccc(C(=O)O)cc2)C(=O)N[C@@H](CC(=O)O)C(=O)N[C@@H](Cc2cccc(C)c2)C(=O)N[C@@H](Cc2ccc(C(=O)O)cc2)C(=O)N[C@@H](Cc2ccc(-c3ccccc3)cc2)C(=O)N[C@@H](Cc2ccc(C(=O)O)cc2)C(=O)N[C@@H](CCCN)C(=O)N[C@H](CC(C)C)C(=O)N[C@@H](CCN)C(=O)N[C@@H](CC2CCCCC2)C(=O)N[C@@H](C(C)C)C(=O)N[C@@H](CCC(=O)O)C(=O)N1)C(=O)O [Compound 2706] ({CH2CO}-L[Phe(4-COOH)]D[Phe(3-Me)][Phe(4-COOH)][Bip][Phe(4-COOH)][Orn][dL][Dab][Cha]VEC[Dab][Pra]-OH; thioether N-14) | 2.4 |
| C#CC[C@H](NC(=O)[C@H](CCN)NC(=O)[C@@H]1CSCC(=O)N[C@@H](CC(C)C)C(=O)N[C@@H](Cc2ccc(OCC(=O)O)cc2)C(=O)N[C@@H](CC(=O)O)C(=O)N[C@@H](Cc2cccc(C)c2)C(=O)N[C@@H](Cc2ccc(OCC(=O)O)cc2)C(=O)N[C@@H](Cc2ccc(-c3ccccc3)cc2)C(=O)N[C@@H](Cc2ccc(OCC(=O)O)cc2)C(=O)N[C@@H](CCCN)C(=O)N[C@H](CC(C)C)C(=O)N[C@@H](CCN)C(=O)N[C@@H](CC2CCCCC2)C(=O)N[C@@H](C(C)C)C(=O)N[C@@H](CCC(=O)O)C(=O)N1)C(=O)O [Compound 2707] ({CH2CO}-LY(Carboxymethyl)D[Phe(3-Me)]Y(Carboxymethyl)[Bip]Y(Carboxymethyl)[Orn][dL][Dab][Cha]VEC[Dab][Pra]-OH; thioether N-14) | 5 |
| CC(C)C[C@H]1NC(=O)[C@H](CCCN)NC(=O)[C@H](Cc2ccc(C(=O)O)cc2)NC(=O)[C@H](Cc2ccc(-c3ccccc3)cc2)NC(=O)[C@H](Cc2ccc(C(=O)O)cc2)NC(=O)[C@H](Cc2cccc(C(F)(F)F)c2)NC(=O)[C@H](CC(=O)O)NC(=O)[C@H](Cc2ccc(C(=O)O)cc2)NC(=O)[C@H]([C@H](C)N)NC(=O)CSC[C@@H](C(=O)N[C@@H](CCN)C(N)=O)NC(=O)[C@H](CO)NC(=O)[C@H](C(C)(C)C)NC(=O)[C@H](CC2CCCCC2)NC(=O)[C@H](CCN)NC1=O [Example 2708] ({CH2CO}-[Abu(3S-NH2)][Phe(4-COOH)]D[Phe(3-CF3)][Phe(4-COOH)][Bip][Phe(4-COOH)][Orn][dL][Dab][Cha][Tle]SC[Dab]-NH2; thioether N-14) | 0.6 |
| Cc1cccc(C[C@@H]2NC(=O)[C@H](CC(=O)O)NC(=O)[C@H](Cc3ccc(C(=O)O)cc3)NC(=O)[C@H](CCN)NC(=O)CSC[C@@H](C(=O)N[C@@H](CCN)C(N)=O)NC(=O)[C@H](CO)NC(=O)[C@H](C(C)(C)O)NC(=O)[C@H](CC3CCCCC3)NC(=O)[C@H](CCN)NC(=O)[C@@H](CC(C)C)NC(=O)[C@H](CCCN)NC(=O)[C@H](Cc3ccc(C(=O)O)cc3)NC(=O)[C@H](Cc3ccc(-c4ccccc4)cc3)NC(=O)[C@H](Cc3ccc(C(=O)O)cc3)NC2=O)c1 [Example 2709] ({CH2CO}-[Dab][Phe(4-COOH)]D[Phe(3-Me)][Phe(4-COOH)][Bip][Phe(4-COOH)][Orn][dL][Dab][Cha][Val(3-OH)]SC[Dab]-NH2; thioether N-14) | 2.3 |
